Measured values as given in PMC9026148, “Pre-Clinical Study Evaluating Novel Protein Phosphatase 2A Activators as Therapeutics for Neuroblastoma” (Cancers, 2022).

Legend:
[1] = Microsome (oxidative metabolism) stability, mouse; format: in vitro ADME; conditions: for half-life at 1 µM: liver microsomes 0.5 mg/mL, NADPH, read-out: T1/2 Mouse; for microsomal CLint at 1 µM: liver microsomes, read-out: CL Mouse
Experimental: (§1) Microsome stability assays were performed by Bioduro, LLC. Briefly, 2.5 µL (100 µM in DMSO) of test compounds are added to 197.5 µL of human, rat, or mouse microsome preparation (0.633 mg/mL in phosphate buffer) and mixed gently at 37 °C. The reaction is started by adding 50 µL NADPH (5 mM in phosphate buffer) and mixing at 37 °C. The final reaction microsome concentration is 0.5 mg/mL. The reaction is sampled at 0, 5, 15, 30, and 60 min. Reaction aliquots are quenched by adding to 1:1 methanol–acetonitrile containing analytical standards and analyzed by liquid chromatography with tandem mass spectrometry (LC-MS/MS).

[2] = Microsome (oxidative metabolism) stability, rat; format: in vitro ADME; conditions: for half-life at 1 µM: liver microsomes 0.5 mg/mL, NADPH, read-out: T1/2 Rat; for microsomal CLint at 1 µM: liver microsomes, read-out: CL Rat
Experimental: as §1

CIP2A = test: Immunoblotting of CIP2A in neuroblastoma cells; format: cell-based, human; conditions: increasing concentrations, 24 h; all cell lines except WAC2 and COA129 treated with 792
Experimental: Following treatment, cells were lysed on ice using radioimmunoprecipitation (RIPA) buffer with phosphatase inhibitors (P5726, Sigma Aldrich), protease inhibitors (P8340, Sigma Aldrich), and phenylmethanesulfonylfluoride (PMSF, P7626, Sigma Aldrich) for 60 min. Cell lysates were centrifuged at 17,000 rpm for 30 min at 4 °C. Pierce™ BCA Protein Assay (Thermo Fisher Scientific, Inc.) determined protein concentration and proteins were separated by electrophoresis on sodium dodecyl sulfate polyacrylamide (SDS-PAGE) gels. Expected size of the targeted proteins was confirmed using molecular weight markers (Precision Plus Protein Kaleidoscope, Bio-Rad, Hercules, CA, USA). […] Immunoblots were developed with Luminata Classico or Crescendo Western horseradish peroxidase substrate (EMD Millipore, Burlington, MA, USA). Either anti-vinculin or anti-β-actin (as available from manufacturer) served as an internal loading control. We performed densitometry of Western blots using ImageJ software (Ver 1.49, http://imagej.nih.gov/ij (accessed on 9 February 2022).

PP2A = biological target: T1, PP2A (Homo sapiens, UniProt P30153+P67775); test: PP2A immunoprecipitation phosphatase assay in SH-EP cells; format: cell-based; conditions: 24 h, 10 μM in text (15 μM in Figure 2 legend), control 100 ± 0%
T1 construct: host or cells: SH-EP
T1 sequence (P67775 whole entry): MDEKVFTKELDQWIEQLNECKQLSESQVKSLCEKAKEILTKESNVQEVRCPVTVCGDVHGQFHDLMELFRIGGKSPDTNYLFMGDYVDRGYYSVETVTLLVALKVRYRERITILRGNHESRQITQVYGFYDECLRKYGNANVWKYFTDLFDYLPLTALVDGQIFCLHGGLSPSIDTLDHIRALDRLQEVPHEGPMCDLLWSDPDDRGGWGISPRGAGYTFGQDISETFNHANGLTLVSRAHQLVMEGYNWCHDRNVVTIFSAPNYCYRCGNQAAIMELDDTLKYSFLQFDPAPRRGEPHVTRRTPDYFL
T1 sequence (P30153 2-589 limits assumed): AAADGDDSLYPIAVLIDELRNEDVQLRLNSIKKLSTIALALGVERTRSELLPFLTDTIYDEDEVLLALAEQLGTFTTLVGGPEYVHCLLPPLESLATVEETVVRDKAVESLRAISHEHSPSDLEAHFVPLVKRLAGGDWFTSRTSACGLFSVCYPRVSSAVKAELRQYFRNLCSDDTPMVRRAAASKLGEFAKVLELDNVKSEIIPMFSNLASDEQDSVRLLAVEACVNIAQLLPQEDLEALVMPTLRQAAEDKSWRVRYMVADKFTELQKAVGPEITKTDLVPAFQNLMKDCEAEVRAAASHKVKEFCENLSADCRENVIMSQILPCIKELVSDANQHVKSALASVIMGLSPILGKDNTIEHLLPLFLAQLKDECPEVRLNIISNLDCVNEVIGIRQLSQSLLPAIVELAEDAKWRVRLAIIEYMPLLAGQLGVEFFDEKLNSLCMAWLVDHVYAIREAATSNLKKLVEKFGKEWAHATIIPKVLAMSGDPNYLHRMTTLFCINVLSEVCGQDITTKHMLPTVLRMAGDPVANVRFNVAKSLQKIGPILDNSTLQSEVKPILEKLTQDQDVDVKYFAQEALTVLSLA

SH-EP cells = test: Cell cycle analysis by flow cytometry (PI), SH-EP; format: cell-based, human; conditions: 24 h; for Mean % G1 (± SEM) / Mean % G2 (± SEM) / Mean % S (± SEM) / percentage of cells in the S phase / percentage of cells in G1: SH-EP, 15 μM; for percentage of cells in the S phase: untreated 30.9 ± 2.1; for percentage of cells in G1: untreated 42.6 ± 2.4
Experimental: To evaluate cell cycle, cells (1 × 10^6) were plated and maintained in respective media with reduced FBS (4%) for cell synchronization. […] Cells were washed with phosphate-buffered saline (PBS) and fixed at 4 °C for 30 min with 100% ethanol. Following a second PBS wash, cells were stained with propidium iodide (PI, Invitrogen, Waltham, MA, USA), RNAse A (0.1 mg/mL, Qiagen, Germantown, MD, USA), and 0.1% TritonX (Active Motif, Carlsbad, CA, USA), and FACSCalibur^TM Flow Cytometer (BD Biosciences, Franklin Lakes, NJ, USA) was used for examination. FlowJo software (FlowJo, LLC, Ashland, OR, USA) was used for data analysis. Data reported as mean percentage cells in phase ± SEM.

SK-N-AS cells [3] = test: CellTiter 96 proliferation, SK-N-AS; format: cell-based; conditions: Homo sapiens, 24 h
Experimental: (§2) CellTiter 96® Aqueous One Solution Cell Proliferation assay (Promega, Madison, WI, USA) was used to examine proliferation, and alamarBlue® assay (Thermo Fisher Scientific, Inc.) was used to evaluate viability. Cells, concentrations ranging from 5 × 10^3 to 1.5 × 10^4, depending on cell type due to wide variation in growth characteristics between established cell lines and PDX cells, were plated in 96-well plates and treated with increasing doses of 792 or 1154 for 24 h. CellTiter 96® or alamarBlue® dye (10 µL) was added for proliferation and viability assays, respectively. A microplate reader (Epoch Microplate Spectrophotometer, BioTek Instruments, Winooski, VT) measured absorbance at 490 nm for CellTiter 96® and at 570 nm for alamarBlue®, using 600 nm as a reference. […] Experiments were completed with at least three biologic replicates, and data reported as fold change ± SEM.
(§3) Supplemental Figure S3: Novel PP2A activating compounds decrease d neuroblastoma proliferation and viability. SK-N-AS and SK-N-BE(2) cells (1.5 x 104) were plated in 96-well plates and treated with increasing doses of nine PP2A activating compounds for 24 […]
(§4) novel PP2A activators tested in (A) SK-N-AS and (B) SK-N-BE(2) cells. Similarly, PP2A […]
(§5) (D) SK-N-BE(2) cells. Data reported as mean fold change ± SEM, and experiments were repeated with at least three biologic replicates. […]

SK-N-BE(2) flank tumors = test: SK-N-BE(2) flank tumor growth in athymic nude mice; format: in vivo, mouse; conditions: 50 mg/kg bid po
Experimental: (§6) SK-N-AS (1.8 × 10^6) or SK-N-BE(2) (1.5 × 10^6) cells in 25% Matrigel™ (BD Biosciences) were injected into the right flank of 6-week-old female athymic nude mice (Fredricks, Charles River, Wilmington, MA, USA) (n = 5 for SK-N-AS vehicle treated, n = 7 for SK-N-AS 792 or 1154 treatment and all SK-N-BE(2) experimental groups). Calipers were used to measure tumors three times per week, and volumes were calculated by the formula (width^2 × length)/2, where width was the smaller measurement. After tumors reached a volume of 100 mm^3, animals were randomized to three groups to receive 100 µL of either vehicle (N,N-dimethylacetamide (DMA, 271012, Sigma Aldrich) and Kolliphor® HS 15 (Solutol, 42996, Sigma Aldrich)), 792 (50 mg/kg in DMA and Solutol), or 1154 (50 mg/kg in DMA and Solutol) twice daily by oral gavage; dosing based on previously published in vivo cancer models. Animals were weighed weekly and were humanely euthanized in their home cages with CO2 and cervical dislocation when control tumors reached 2000 mm^3; either 9 (SK-N-AS tumors) or 19 days (SK-N-BE(2) tumors) following treatment initiation, or when IACUC parameters were met. Power analysis was completed prior to the study.

SK-N-AS cells [4] = test: alamarBlue viability, SK-N-AS; format: cell-based, human; conditions: 24 h
Experimental: as §2, §3, §4, §5

SK-N-AS flank tumors = test: SK-N-AS flank tumor growth in athymic nude mice; format: in vivo, mouse; conditions: 50 mg/kg bid po; for Percent necrosis in SK-N-AS tumors: H&E, blinded pathologist, vehicle 8.3 ± 3.3%; for tumor volume: SK-N-AS flank tumors, after 9 days, vehicle 2104 ± 53
Experimental: as §6

| SMILES | half-life at 1 µM [1] [min] | microsomal CLint at 1 µM [1] [µL/min/mg] | half-life at 1 µM [2] [min] | microsomal CLint at 1 µM [2] [µL/min/mg] | expression of CIP2A (CIP2A) | PP2A activation (percent PP2A activity) (PP2A) [%] | percent of cells in subG1 (SH-EP cells; SH-EP cells) | Mean % G1 (± SEM) (SH-EP cells) | Mean % G2 (± SEM) (SH-EP cells) | Mean % S (± SEM) (SH-EP cells) | percentage of cells in the S phase (SH-EP cells) [%] | percentage of cells in G1 (SH-EP cells) [%] | IC50 (SK-N-AS cells [3]) [µM] | tumor volume (SK-N-BE(2) flank tumors; after 17 days, vehicle 2362 ± 53) [mm^3] | LD50 (SK-N-AS cells [4]) [µM] | Percent necrosis in SK-N-AS tumors (SK-N-AS flank tumors) [%] | tumor volume (SK-N-AS flank tumors) [mm^3] | ganglion cells in tumors (tumor cell differentiation) (SK-N-AS flank tumors; SK-N-AS tumors, H&E staining) | tumor volume (SK-N-BE(2) flank tumors; by day 19, vehicle 2362 ± 53) [mm^3] |
| --- | --- | --- | --- | --- | --- | --- | --- | --- | --- | --- | --- | --- | --- | --- | --- | --- | --- | --- | --- |
| O=S(=O)(N[C@H]1COC[C@@H](n2c3ccc(Cl)cc3c3cc(Cl)ccc32)[C@@H]1O)c1ccc(OC(F)(F)F)cc1 [ATUX-792] | > 256 | < 5 | > 256 | < 5 | decreased | 117.3 ± 7.2 | significant increase in the percent of cells in subG1 | 58.4 (± 2.3) % | 12.1 (± 2.6) % | 21.0 (± 1.4) % | 21 ± 1.4 | 58.4 ± 2.3 | 23.9 | 1383 ± 243 | 12.2 | 33.3 ± 8.8 | 1309 ± 169 | ganglion cells present |  |
| O=S(=O)(NC1CCCC(N2c3ccccc3CCc3ccccc32)C1O)c1ccc(OC(F)(F)F)cc1 (stereo not shown) [DBK-1154] | 6 | 234 | 3 | 521 | decreased | 138.0 ± 16.5 |  | 52.0 (± 2.2) % | 14.6 (± 4.9) % | 26.3 (± 2.0) % | 26.3 ± 2 | 52 ± 2.2 | 22.4 |  | 13.9 | 23.3 ± 6.7 | 2124 ± 275 |  | 1628 ± 362 |
